Measured values from patent publication US10287585B2, “Therapy” (priority 2015, dated 2019).
Entries after “also recorded” stand apart in the source; their conditions may differ.

What was measured:
Type in all cases: in vivo
E. coli CFT073 [1] = test: Treatment of Irf3−/− mice after intravesical E. coli CFT073 infection: Irf7 siRNA compared with antibiotic therapy (Example 5); details: for number (frequency) of abscesses: siRNA intravenously and intravesically 24 hours and 4 days after infection, vs untreated
Experimental: Irf7 siRNA treatment was compared with antibiotic therapy. Groups of 6 Irf3^−/− mice were treated intravenously and intravesically with siRNA as described in Example 3, 24 hours and 4 days after intravesical infection with E. coli CFT073. The 24 hour time point corresponds to the time of acute symptoms, when patients are first diagnosed with febrile urinary tract infection (UTI) and treatment is initiated.
Also at that time, and following infection with E. coli CFT073, Irf3 mice were treated with the third-generation cephalosporin broad-spectrum antibiotic, Cefotaxime (STRAGEN Nordic A/S) at a dose of 100 or 400 mg/kg body weight. Cefotaxime was given by intraperitoneal injection twice a day for 6 days starting 24 hours after infection.
After 7 days, the mice were sacrificed, and kidney pathology and inflammation as quantified by neutrophil numbers in urine was assessed. Bacterial clearance was also assessed in SiRNA treated mice by measuring bacterial counts in urine. The results are shown in FIGS. 9A-E and 10A-D respectively.

E. coli CFT073 [2] = test: Irf7 siRNA therapy given before intravesical E. coli CFT073 infection of susceptible Irf3−/− mice (Example 3)
Experimental: Anesthetized mice (Isofluoran) were infected by intravesical inoculation with E. coli CFT073 (10^8 CFU in 0.1 mL) as described (Hagberg et al., Infection and immunity (1983) 40, 273-283). Overnight static cultures of E. coli CFT073 in Luria broth were used for animal inoculations.
Animals were sacrificed after 7 days under anesthesia, kidneys were aseptically removed and macroscopic pathology was documented by photography. Tissues were divided for RNA extraction (on dry ice), histology and immunostaining (in O.C.T. compound, VWR) and frozen in separate vials at −80° C. Infection was assessed by viable counts of homogenized whole kidney (in 5 mL PBS). Urine samples were collected prior to and at regular times after infection and quantitatively cultured. Neutrophil numbers were quantified in uncentrifuged urine by use of a hemocytometer.
siRNA therapy was used to confirm the role of Irf7 in pathology. Irf3^−/− mice were subjected to siRNA treatment at a dose of 5 mg/kg. A dose (300 μL) of Silencer Select Pre-designed Irf7 siRNA (Life Technologies, 4404010 #s79411) was injected into the tail vein (200 μL) and intravesically (100 μL), three days prior to and on the day of infection with Invivofectamine reagent (Life Technologies, 1377501) (FIG. 5A). The siRNA used was as follows:
(§1) Ambion In Vivo Negative Control siRNA was given as a control (Life Technologies, 4457287). For transcriptomic analysis, total RNA was isolated from the kidney of Irf3^−/− mice using mirVana miRNA Isolation Kit (Ambion by Life Technologies) followed by organic extraction using Acid-Phenol:Chloroform. The analysis was done in-house using Mouse Genome 430 PM array strips and GeneAtlas system (Affymetrix).
After 7 days following infection, mice were sacrificed. The disease phenotype was defined by macroscopic kidney pathology, number of abscesses, bacterial counts in urine and kidneys, urine neutrophil numbers and tissue imaging (FIGS. 5B and 5D). Irf7 siRNA-treated mice were compared to infected controls receiving irrelevant siRNA with Invivofectamine® or no treatment.

IRF-7 = test: Immunohistochemistry of IRF-7 in renal pelvic mucosa of siRNA treated mice; details: Irf3−/− mice, 7 days after infection
STAT3 = test: Immunohistochemistry of submucosal STAT3 in kidneys of siRNA treated mice; details: Irf3−/− mice, 7 days after infection
[3] = system: pro-inflammatory genes and pathology network genes; test: Whole genome transcriptomic analysis of kidneys from Irf7 siRNA treated mice
Source text: as §1

[4] = Cefotaxime 100 or 400 mg/kg intraperitoneal twice a day for 6 days starting 24 hours after infection, 7 days
[5] = Irf3−/− mice, siRNA 5 mg/kg three days prior to and on the day of infection, 7 days after infection
[6] = immunohistochemistry 7 days after infection, vs negative control siRNA treated or untreated Irf3−/− mice
[7] = kidneys of Irf7 siRNA treated Irf3−/− mice infected with CFT073 vs untreated controls
[8] = abscesses, 7 days after infection
[9] = siRNA 24 hours and 4 days after infection, 7 days

For `CO/N=C(\C(=O)N[C@@H]1C(=O)N2C(C(=O)O)=C(COC(C)=O)CS[C@H]12)c1csc(N)n1` [Cefotaxime, reference compound], the frequency of abscesses (E. coli CFT073 [1]; [4]) was “reduced” and the “neutrophil numbers in urine (inflammation)” value (E. coli CFT073 [1]; [4]) was “reduced”.

For “Irf7 siRNA: Silencer Select Pre-designed Irf7 siRNA (Life Technologies, 4404010 #s79411); sense GUGUUUACGAGGAACCCUAtt, antisense UAGGGUUCCUCGUAAACACgg; delivered with Invivofectamine (sense GUGUUUACGAGGAACCCUATT; antisense UAGGGUUCCUCGUAAACACGG; chemistry not given here)”, the “macroscopic kidney pathology and tissue damage” value (E. coli CFT073 [2]; Irf3−/− mice, siRNA 5 mg/kg tail vein + intravesically, three days prior to and on the day of infection, 7 days after infection, vs irrelevant siRNA or untreated) was “Reduction”, the “bacterial counts in urine and renal tissue” value (E. coli CFT073 [2]; [5]) was “reduction; also recorded: lower” and the “neutrophil recruitment (neutrophil numbers in urine)” value (E. coli CFT073 [2]; [5]) was “reduction; also recorded: reduced”. For the same compound, the frequency of abscesses (E. coli CFT073 [2]; Irf3−/− mice, siRNA three days prior to and on the day of infection, 7 days after infection, n=3-8) was “reduced”, the “bacterial staining, frozen kidney tissue sections” value (E. coli CFT073 [2]; [6]) was “markedly reduced” and the “neutrophil staining, frozen kidney tissue sections” value (E. coli CFT073 [2]; [6]) was “markedly reduced”. The “mucosal IRF-7 expression (staining) in renal pelvic mucosa” value (IRF-7) was “Suppression; also recorded: Inhibition”, the “mucosal IRF-7 expression (staining) in renal pelvic mucosa” value (IRF-7; listed as siRNA) was “Reduced” and the “submucosal STAT3 staining” value (STAT3) was “reduced; also recorded: inhibited”. The pathology-associated gene expression ([3]; Irf7 siRNA treated mice, as stated in Example 5) was “absence”, the Tlr4 expression [3, 7] was “activated” and the “expression of pro-inflammatory genes and transcriptional regulators (chemokines, Irf7, Stat3, Jun)” value [3, 7] was “suppressed”. The “transcript levels overall and of pathology-associated genes (Stat3, S100a8, Cxcl2, Junb)” value ([3]; kidneys of siRNA treated Irf3−/− mice) was “suppressed”, the “effect compared with 100 mg/kg of Cefotaxime” value (E. coli CFT073 [1]; [8]) was “similar” and the “effect compared with 400 mg/kg of Cefotaxime” value (E. coli CFT073 [1]; [8]) was “lower”. For the same compound, the “bacterial counts in urine (bacterial clearance)” value (E. coli CFT073 [1]; [9]) was “lower”, the “neutrophil numbers in urine (magnitude of the neutrophil infiltrate)” value (E. coli CFT073 [1]; [9]) was “reduced” and the “neutrophil numbers in urine (magnitude of the neutrophil infiltrate)” value (E. coli CFT073 [1]; siRNA 24 hours and 4 days after infection, 7 days, listed as SiRNA) was “significantly reduced”. For the same compound, the “number (frequency) of abscesses” value (E. coli CFT073 [1]; 7 days after infection) was “reduced” and the “number (frequency) of abscesses” value (E. coli CFT073 [1]; 7 days after infection, listed as SiRNA) was “significantly reduced”.
